One block for each compound: values may come before it.
Columns and labels:
A. thaliana seeds = assay: Seed germination with toxic peptides (minimum inhibitory concentration); assay type: in vivo, Arabidopsis thaliana; conditions: seeds exposed to the toxic compound
Method: Thus, A. thaliana seeds and seedlings were exposed to Ethionine, Ala-Eth, Leu-Eth, Leu-fluorophenylalanine or oxalysine containing peptides, and the minimum inhibitory concentrations (MIC) were determined for each of the toxic compounds.
To measure the minimum inhibitory concentration of the toxic peptides, 10 to 15 A. thaliara seeds were place on solid Arabidopsis growth media with decreasing concentrations of toxic peptide. The seeds were incubated for 4 days in the dark and then scored for germination.

PB1X-2AΔ (pDTF1) = assay: Growth on peptides, deletion strain transformed with ATPTR2B; assay type: cell-based, Saccharomyces cerevisiae; parameters: key: +: Growth was scored as uniform colony formation; -: negative controls which showed no growth; conditions: PBIX-2AΔ (pDTF1); 80 μM peptide in SC medium, 30° C., 72 hrs
Method: (§1) Thus, the peptide transport mutant PB1X-9B and deletion strain PB1X-2AΔ transformed with plasmids pPTF4 (ATPTR2A) or pDTF1 (ATPTR2B) were grown on various peptides to assess the specificity of the plant peptide transporter. In addition, untransformed PB1X-9B, PB1X-9B transformed with plasmid pJP9 encoding the above-described yeast peptide transport gene, PB1X-2AΔ and PB1X-2A, the ptr2^+ parental strain to PB1X-2AΔ strain, were also assayed. Each strain was grown overnight in SC media plus uracil (non-transformed) or minus uracil (transformed) plus amino acids to stationary phase and harvested by centrifugation. Cells were then washed twice with sterile dH2 O and resuspended at 5×10^6 cells/ml. 5 μl of each suspension was applied as a small spot to a 2 ml volume of solid media in a 24 well plate. All peptides were suspended in sterile, deionized water and added to an equal volume of SC medium plus the appropriate amino acids and uracil when required. The medium for each assay thus consisted of SC medium plus or minus uracil supplemented with 80 μM of a specific peptide and auxotrophic requirements minus the amino acid components of the added peptide. The plates were incubated at 30° C. for 72 hrs. and then scored for growth.

PB1X-9B (pPTF4) [1] = assay: Growth on peptides, mutant transformed with plant gene ATPTR2A; assay type: cell-based, Saccharomyces cerevisiae; conditions: PBIX-9B (pPTF4); 80 μM peptide in SC medium, 30° C., 72 hrs
Method: as §1, with “In” for “Thus, the peptide transport mutant PB1X-9B and deletion strain PB1X-2AΔ transformed with plasmids pPTF4 (ATPTR2A) or pDTF1 (ATPTR2B) were grown on various peptides to assess the specificity of the plant peptide transporter. In”

PB1X-9B [2] = assay: Growth on peptides as amino acid source, peptide transport mutant; assay type: cell-based, Saccharomyces cerevisiae; conditions: PBIX-9B; 80 μM peptide in SC medium, 30° C., 72 hrs
Method: as §1, with “In” for “Thus, the peptide transport mutant PB1X-9B and deletion strain PB1X-2AΔ transformed with plasmids pPTF4 (ATPTR2A) or pDTF1 (ATPTR2B) were grown on various peptides to assess the specificity of the plant peptide transporter. In”

PB1X-9B (pJP9) [3] = assay: Growth on peptides, mutant transformed with yeast peptide transport gene; assay type: cell-based, Saccharomyces cerevisiae; conditions: for growth on peptide (in words): PB1X-9B transformed with pJP9; for growth on peptide: PBIX-9B (pJP9), 80 μM peptide in SC medium, 30° C., 72 hrs
Method: as §1, with “In” for “Thus, the peptide transport mutant PB1X-9B and deletion strain PB1X-2AΔ transformed with plasmids pPTF4 (ATPTR2A) or pDTF1 (ATPTR2B) were grown on various peptides to assess the specificity of the plant peptide transporter. In”

A. thaliana seedlings = assay: Root assay, toxic peptide plus competitor peptide; assay type: in vivo, Arabidopsis thaliana
Method: Approximately 15 A. thaliana seeds were placed in a row at one end of 10 cm plate containing 20 ml of Arabidopsis growth media (Kranz and Kirchheim 1987). The seeds were incubated 3-5 days in the light with the plate set in an upright position. When the roots were approximately 1-2 cm long, sterile paper filter disks were placed immediately in front of the root tips on the right and left side of the plate 2 cm from the edge of the plate. A line was drawn across the plate using the top of the disks as a guide marking zero growth. 5 μl of toxic amino acid analog, toxic peptide, or toxic peptide plus competitor was added to one disk while H2 O was place on the other disk. The plates were incubated for an additional 3-5 days. The average length of the roots was measured from the line and the results expressed as a percentage of control root growth.

[4] = molecular target: T1, yeast peptide transport system (Saccharomyces cerevisiae, UniProt P32901); assay: Competition for L-leucyl-L-[3H]leucine uptake, PB1X-9B[pJP9]; assay type: cell-based; conditions: pH 5.5
T1 construct: The ptr2 gene encodes a 602 amino acid hydrophobic polypeptide with 12 putative hydrophobic segments; expressed in transfected cells; host or cells: S. cerevisiae peptide transport mutant PB1X-9B (ptr2-2) transformed with pJP9
T1 sequence (P32901 1-601): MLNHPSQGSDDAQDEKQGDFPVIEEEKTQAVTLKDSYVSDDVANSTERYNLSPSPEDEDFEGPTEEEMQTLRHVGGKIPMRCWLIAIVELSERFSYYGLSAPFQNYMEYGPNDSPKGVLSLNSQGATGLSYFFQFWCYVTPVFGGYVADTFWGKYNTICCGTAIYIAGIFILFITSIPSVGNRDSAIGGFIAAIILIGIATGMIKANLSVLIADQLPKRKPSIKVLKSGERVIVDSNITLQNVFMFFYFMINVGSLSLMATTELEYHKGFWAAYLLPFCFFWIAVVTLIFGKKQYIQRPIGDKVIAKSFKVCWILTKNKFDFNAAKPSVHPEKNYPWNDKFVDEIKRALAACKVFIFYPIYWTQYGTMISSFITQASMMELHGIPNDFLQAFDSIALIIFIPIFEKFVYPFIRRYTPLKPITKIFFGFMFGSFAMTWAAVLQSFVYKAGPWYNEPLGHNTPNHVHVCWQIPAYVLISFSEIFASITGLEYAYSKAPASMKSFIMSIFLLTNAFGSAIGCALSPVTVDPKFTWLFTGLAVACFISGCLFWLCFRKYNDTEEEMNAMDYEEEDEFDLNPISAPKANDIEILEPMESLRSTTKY
Method: (§2) L-leucyl-L [^3 H]leucine trifluoroacetic acid (TFA) was synthesized by standard solution phase techniques (Naider, F. et al., J. Biol. Chem. 249:9-20 (1974)). Uptake of L-leucyl-L-[H]leucine was performed as by Island, M. D. et al (J. Bacteriol. 169:2132-2136 (1987)), with the following modifications. Cells were grown to late log phase (26×10^7 cells/ml) overnight in SC with 2% glucose, 1 mg/ml allantoin plus amino acids to supplement auxotrophic markers. To induce peptide transport. 5-15 ml from this culture was added to 100 ml fresh medium such that the density was 3.0×10^6 cells/ml. This culture was allowed to grow (approx. 2 hrs.) to a density of 6.0×10^6 cells/ml and then harvested by centrifugation. The pelleted cells were washed twice with 10 ml cold dH2 O and suspended in cold 2% glucose to a final concentration of 2×10^8 cells/ml and incubated at 30° C. for 15 min. 500 μl of cells were then added to an equal volume of reaction mixture (30° C.) and incubated at 30°-C. At 20, 40, 60, 90, and 120 sec. intervals, 190 μl portions were removed, filtered over filters (pore size, 0.45 μm; GN-6; Gelman Sciences, Inc., Ann Arbor, Mich.) and washed 2 times with 5 ml cold, sterile dH2 O and once with 5 ml dH2 O at room temperatures. Filters were placed in scintillation vials with 5 ml of Budget-Solve scintillation cocktail (Research Products International Corp., Mount Prospect, Ill.) and counted (liquid scintillation counter; LS-7000; Beckman Instruments, Inc., Fullerton, Calif.). The final concentration of the components in the uptake assay was 1% glucose, 40 mM sodium citrate-potassium phosphate buffer (pH 5.5), and 1.5×105 M L-leucyl-L-[^3 H]leucine (specific activity, 10 mCi/mmole). Uptake is expressed as nanomoles per mg dry weight.

ATPTR2Ap = assay: Uptake of L-leucyl-L-[3H]leucine and competition, PB1X-9B[pPTF4]; conditions: PB1X-9B[pPTF4], pH 5.5, dileucine and leucine at 100-fold
Method: The kinetics of ATPTR2A-mediated transport of peptides in yeast was evaluated by transforming pPTF4 into the S. cerevisiae peptide transport mutant, PB1X-9B and measuring the uptake of tritiated Leu-Leu dipeptide.
as §2

[5] = tested on: S. cerevisiae strains tested; assay: Toxic peptide disk assay, statements covering several strains; assay type: cell-based, Saccharomyces cerevisiae; conditions: wild type (S288C) and transformants
Method: (§3) Since ptr mutants are deficient in peptide transport, they are unable to take up toxic peptides. This inability renders such mutants resistant to the toxic effect of the peptides. In order to determine whether the polynucleotides of the present invention could restore toxic peptide sensitivity to ptr2 mutants, the sensitivity of plasmid-transformed cells was determined. Sensitivity to toxic amino acids and peptides was measured as described by Island, M. D. et al. (J. Bacteriol. 169:2132-2136 (1987)). Briefly, a filter disk containing 0.38 μmoles of the toxic compound was placed on a lawn containing 5×10^6 cells and the plate incubated at 30° C. for 1 to 2 days. Resulting halos were measured across their diameter. The toxic dipeptides Leu-Eth, Ala-Eth, Leu-F-Phe and Oxalysine were synthesized by standard solution phase techniques (Naider, F. et al., J. Biol. Chem. 249:9-20 (1974). The results of this experiment are shown in Table 2 (values are the mean of the diameters of the observed zone of inhibition in millimeters±standard error of the mean of at least two independent experiments).

PB1X-9B (pJP9) [6] = assay: Toxic peptide disk assay, mutant with yeast peptide transport gene; assay type: cell-based, Saccharomyces cerevisiae; conditions: disk with 0.38 μmoles, lawn of 5×10^6 cells, 30° C., 1 to 2 days, mean ± standard error
Method: as §3

S288C = assay: Toxic peptide disk assay, wild type; assay type: cell-based, Saccharomyces cerevisiae; conditions: disk with 0.38 μmoles, lawn of 5×10^6 cells, 30° C., 1 to 2 days, mean ± standard error
Method: as §3

PB1X-9B (pPTF4) [7] = assay: Toxic peptide disk assay, mutant with plant gene ATPTR2A; assay type: cell-based, Saccharomyces cerevisiae
Method: as §3

PB1X-9B [8] = assay: Toxic peptide disk assay, peptide transport mutant; assay type: cell-based, Saccharomyces cerevisiae
Method: as §3

[9] = disk with 0.38 μmoles, lawn of 5×10^6 cells, 30° C., 1 to 2 days, mean ± standard error

Compound: NCCOC[C@H](N)C(=O)O [Oxa-Lys, oxalysine]
root length at which growth was arrested (A. thaliana seeds): 1-2 mm

Compound: Trp-His-Trp-Leu-Gln-Leu: SEQ ID NO:9 (WHWLQL)
growth on peptide (PB1X-2AΔ (pDTF1)): - | growth on peptide (PB1X-9B (pPTF4) [1]): - | growth on peptide (PB1X-9B [2]): - | growth on peptide (in words) (PB1X-9B (pJP9) [3]): showed growth on all peptides except | growth on peptide (PB1X-9B (pJP9) [3]): -

Compound: Lys-Ala-Ala: tripeptide growth substrate (KAA)
growth on peptide (PB1X-2AΔ (pDTF1)): + | growth on peptide (PB1X-9B (pPTF4) [1]): + | growth on peptide (PB1X-9B [2]): - | growth on peptide (PB1X-9B (pJP9) [3]): +

competition for uptake of [3H]-dileucine [4]: able to compete
Compound: NCC(=O)CCC(=O)O [ALA, γ-aminolevulinic acid]
reversal of toxicity by competitor (in words) (A. thaliana seedlings; toxic peptide Ala-Eth): unable to reverse the inhibition | root growth with toxic peptide plus competitor (A. thaliana seedlings; toxic peptide Ala-Eth): 0 percentage of control root gro | reversal of toxicity by competitor (in words) (A. thaliana seedlings; toxic peptide Leu-Eth): unable to reverse the inhibition | root growth with toxic peptide plus competitor (A. thaliana seedlings; toxic peptide Leu-Eth): 0 percentage of control root gro | competition for uptake of [3H]-dileucine (ATPTR2Ap): lack of inhibition | competition for uptake of [3H]-dileucine (ATPTR2Ap; listed as γ-aminolevulinic acid): did not compete

Compound: tri-Ala: competitor tripeptide
reversal of toxicity by competitor (in words) (A. thaliana seedlings; toxic peptide Ala-Eth): unable to reverse the inhibition | root growth with toxic peptide plus competitor (A. thaliana seedlings; toxic peptide Ala-Eth): 0 percentage of control root gro | reversal of toxicity by competitor (in words) (A. thaliana seedlings; toxic peptide Leu-Eth): unable to reverse the inhibition | competition for uptake of [3H]-dileucine [4]: uptake competition similar to that seen for Leu-Leu | competition for uptake of [3H]-dileucine (ATPTR2Ap): uptake competition similar to that seen for Leu-Leu

Compound: CCSCC[C@H](N)C(=O)O [Eth, ethionine]
root length at which growth was arrested (A. thaliana seeds): 1-2 mm | sensitivity to toxic compound [5]: most sensitive | diameter of zone of inhibition (PB1X-9B (pJP9) [6]): 46.5 ± 1.5 millimeters | diameter of zone of inhibition (S288C): 39.0 ± 3.0 millimeters | sensitivity or resistance to toxic compound (PB1X-9B (pPTF4) [7]): sensitive | diameter of zone of inhibition (PB1X-9B (pPTF4) [7]; [9]): 46.5 ± 0.5 millimeters | sensitivity or resistance to toxic compound (PB1X-9B [8]): sensitive | diameter of zone of inhibition (PB1X-9B [8]; [9]): 44.5 ± 3.5 millimeters

Compound: tetra-Lys: SEQ ID NO:5 (KKKK)
growth on peptide (PB1X-2AΔ (pDTF1)): - | growth on peptide (PB1X-9B (pPTF4) [1]): - | growth on peptide (PB1X-9B [2]): - | growth on peptide (in words) (PB1X-9B (pJP9) [3]): showed growth on all peptides except | growth on peptide (PB1X-9B (pJP9) [3]): -

Compound: Thr-Pro-Arg-Lys: SEQ ID NO:7 (TPRK)
growth on peptide (PB1X-2AΔ (pDTF1)): - | growth on peptide (PB1X-9B (pPTF4) [1]): - | growth on peptide (PB1X-9B [2]): - | growth on peptide (in words) (PB1X-9B (pJP9) [3]): showed growth on all peptides except | growth on peptide (PB1X-9B (pJP9) [3]): -
